Assay results reported in patent US20200237700A1, “METHODS OF REDUCING OR PREVENTING OXIDATION OF SMALL DENSE LDL OR MEMBRANE POLYUNSATURATED FATTY ACIDS” (Amarin Pharmaceuticals Ireland Limited, priority 2015, published 2020).

What was measured:
[1] = Lipid hydroperoxide (LOOH) formation in cholesterol-enriched model membranes under autoxidation, CHOD-iodide assay (Example 3); type: biochemical; details: EPA to lipids 1:30, C/P 0.6:1
Method: An experiment was conducted to test EPA in model membranes enriched with PUFAs and cholesterol at levels that reproduce disease or high CV-risk conditions (i.e., hypercholesterolemia). […] Levels of lipid hydroperoxides were also measured in cholesterol-enriched membrane prepared in the absence of EPA as a control. […] CHOD-iodide color reagent (stock) was prepared according to a procedure modified from El-Saadani et […], Goher […], Jurgens G. A spectrophotometric assay for lipid peroxides in serum lipoproteins using commercially available reagent. J. Lipid. […] Membrane samples consisting of DLPC±cholesterol were prepared as follows. Component lipids (in chloroform) were transferred to 13×100 mm test tubes and shell-dried under a steady stream of nitrogen gas while vortex mixing. The lipid was co-dried with EPA. Residual solvent was removed by drying for a minimum of 3 h under vacuum. […] Absorbances were measured against a CHOD blank at 365 nm using a Beckman DU-640 spectrophotometer. The CHOD colorimetric assay is based on the oxidation of iodide (I^-) by lipid hydroperoxides (LOOH) and proceeds according to the following reaction scheme: […]3^- The quantity of triiodide anion (I3^-) liberated in this reaction is directly proportional to the amount of lipid hydroperoxides present in the membrane sample.

[2] = Glucose-induced membrane lipid peroxidation (LOOH) in multilamellar vesicles, CHOD-iodide assay (Example 4); type: biochemical; details: for inhibited the peroxidative effects of glucose (LOOH formation): vs glucose alone
Method: Vitamin E (α-tocopherol) was also purchased from Sigma-Aldrich and prepared in ethanol at 1.0 mM (ε=3.06×10^4 M^−1 cm^−1 at 294 nm) just prior to experimental use. […] All test compounds were further diluted in ethanol or aqueous buffer as needed. Glucose was prepared in saline buffer (0.5 mM HEPES, 154 mM NaCl, pH 7.3) at 11.0 mM (200 mg/dL). CHOD-iodide color reagent (stock) was prepared, with slight modification, as described by from El-Saadani et al. (J. […] Samples were shell-dried under nitrogen gas and placed under vacuum for 1 h to remove residual solvent. […] Lipid suspensions were then vortexed for 3 min at ambient temperature to form MLVs. All MLV samples were subjected to time-dependent autoxidation by incubating at 37° C. in an uncovered, shaking water bath. This method allows lipid peroxidation to occur gradually without requiring the use of exogenous initiators. Small aliquots (5-100 μL) of each sample were removed, immediately following MLV preparation (0 hour) and after exposing samples to oxidative conditions for 72 or 96 hour, and combined with 1.0 mL of activated CHOD-iodide color reagent. Aliquot volume was reduced with each successive time point to ensure that spectrophotometric readings were within the optimal adsorption range. Test samples were covered and incubated in darkness at room temperature for at least 4 hr. Sample absorbances were then measured against a CHOD blank at 365 nm using a Beckman DU-640 spectrophotometer. The CHOD colorimetric assay is based on the oxidation of iodide (I^−) by lipid hydroperoxide (LOOH) to form triiodide (I3^−), the quantity of which is directly proportional to the amount of LOOH present in the lipid sample. The molar absorptivity (E) of I3^− is 2.46×10^4 M^−1 cm^−1 at 365 nm. […] The concentration of glucose selected was consistent with previous experimental studies of hyperglycemia under controlled laboratory conditions or observed in well-defined animal models of Type II diabetes following a glucose challenge. […] Values in FIG. 1 are mean±S.D. (N=6). EPA inhibited the peroxidative effects of glucose by 88% and 86% at 72 and 96 hours, respectively, which was highly significant (p<0.001) as compared to glucose treatment alone. […] Overall ANOVA-0 hour data: p=0.6655, F=0.4185; 72 hour data: p<0.0001, F=428.72; 96 hour data: p<0.0001, F=322.01.

[3] = Small angle x-ray diffraction of glucose-treated model membranes, cholesterol domain peak intensity (Example 4); type: physicochemical; details: 96-hour time point; vs vehicle or vitamin E treatments; 1:30; glucose 200 mg/dL
Method: After centrifugal orientation, sample supernatants were aspirated and aluminum foil substrates, each supporting a single membrane pellet, were removed from the sedimentation cells. […] All x-ray diffraction experiments were conducted at 20° C., 74% relative humidity.
Oriented membrane samples were aligned at grazing incidence with respect to a collimated, mono-chromatic CuKα x-ray beam (Kα1 and Kα2 unresolved; λ=1.54 Å) produced by a Rigaku Rotaflex RU-200, high-brilliance microfocus generator (Rigaku-MSC, The Woodlands, Tex.) as previously described (Mason et al., Biophys. J., vol. 55(4), pages 769-778 (1989)).
Routines written in Origin 8.6 (OriginLab Corporation, Northampton, Mass.) were used to determine total peak area (associated with all diffraction peaks in a given pattern) against which the second-order cholesterol domain peak was normalized.

HUVECs = experiment: NO release from HUVECs incubated with treated, oxidized sdLDL samples (Example 12); type: cell-based, human; details: EPA-treated
Method: All samples, with the exception of non-oxidized sdLDL controls, were subjected to copper-induced oxidation for 1 hour. Human umbilical vein endothelial cells (HUVECs) were incubated with the various sdLDL samples, stimulated with calcium, and monitored for nitric oxide (NO) and peroxynitrite (ONOO^−) release using nanosensor technology.

SMILES: CC/C=C\C/C=C\C/C=C\C/C=C\C/C=C\CCCC(=O)O [EPA, cis-5,8,11,14,17-eicosapentaenoic acid]
- LOOH levels ([1]; after autoxidation 37° C. 72 hours): 728 ± 30 µM
- reduced LOOH levels compared to untreated controls ([1]; autoxidation 37° C. 72 hours): greater than 90%
- effect on LOOH formation / lipid peroxidation ([2]; 72- and 96-hour time points, 1:30 drug-to-phospholipid mole ratio, glucose): significantly inhibited LOOH formation
- inhibited the peroxidative effects of glucose (LOOH formation) ([2]; 72 hours, glucose 200 mg/dL, 1:30 drug-to-phospholipid mole ratio): 88%
- inhibited the peroxidative effects of glucose (LOOH formation) ([2]; 96 hours, glucose 200 mg/dL, 1:30 drug-to-phospholipid mole ratio): 86%
- antioxidant effects of separate treatments (LOOH formation) ([2]; each at 1.0 μM, glucose 200 mg/dL, 96 hours): potent antioxidant effects
- inhibited relative cholesterol domain peak intensity [3]: more than 99%
- NO release increased as compared to non-oxidized sdLDL treatment (HUVECs): 23%
- NO release increased as compared to oxidized LDL treatment (HUVECs): 53%
